Laboratory results taken from patent publication US20160067248A1, “COMBINATIONS” (GlaxoSmithKline Intellectual Property Development Limited, priority 2011, published 2016).

Assays:
SKOV3-IP1 cells [1] = experiment: Migration of SKOV3-IP1 cells; type: cell-based, human; settings: p<0.001
[2] = tested on: SKOV3-Ip1 / HeyA8 tumor xenograft; experiment: Combination study, intraperitoneal ovarian tumor xenograft models in nude mice; type: in vivo; settings: pazopanib 100 mg/kg oral daily
Experimental: Tumor cells were injected intraperitoneally into nude mice. For the first study, mice were inoculated with 1,000,000 SKOV3-Ip1 cells. For the second study, mice were inoculated with 250,000 HeyA8 cells. At the time of inoculation, mice were randomized into groups to be treated by oral gavage and intraperitoneal injection. The animals were grouped as described below. The criteria for end point was animals in any group being moribund. At the time of dissection, animals were sacrificed by cervical dislocation and necropsy immediately performed. Tumor nodules were counted and aggregate tumor weight (g) was recorded. Tumors were fixed in 10% formalin, and fresh tumor was flash-frozen for future analysis.
The goal of this study was to determine the in vivo effects of each of pazopanib, the FAK inhibitor, and docetaxel, alone and in combinations. Nude mice were inoculated with tumor as described above and randomized to the groups below. The following doses of each inhibitor were used: FAK-inhibitor, 75 mg/kg, oral, daily; pazopanib, 100 mg/kg, oral, daily; docetaxel, 35 ug, IP, weekly. […] Tumor nodules were counted and aggregate tumor weight (g) was recorded. […]
In vitro dose-response, in vivo tumor growth and scoring of the immunohistochemistry are presented as mean±Standard Error. Statistical significance was assessed by student's T-test and P≦0.05 was considered to be significant. […]

[3] = molecular target: T1, FAK phosphorylation at Y397 (pFAK^Y397) (Homo sapiens, UniProt Q05397); experiment: FAK phosphorylation at Y397 (pFAK Y397) in ovarian cancer cells; type: cell-based
T1 construct: endogenous in cells; host or cells: SKOV3-IP1 and HeyA8 cells

SKOV3-IP1 cells [4] = experiment: Invasion of SKOV3-IP1 cells; type: cell-based, human; settings: p<0.001

T1 sequence (Q05397 whole entry): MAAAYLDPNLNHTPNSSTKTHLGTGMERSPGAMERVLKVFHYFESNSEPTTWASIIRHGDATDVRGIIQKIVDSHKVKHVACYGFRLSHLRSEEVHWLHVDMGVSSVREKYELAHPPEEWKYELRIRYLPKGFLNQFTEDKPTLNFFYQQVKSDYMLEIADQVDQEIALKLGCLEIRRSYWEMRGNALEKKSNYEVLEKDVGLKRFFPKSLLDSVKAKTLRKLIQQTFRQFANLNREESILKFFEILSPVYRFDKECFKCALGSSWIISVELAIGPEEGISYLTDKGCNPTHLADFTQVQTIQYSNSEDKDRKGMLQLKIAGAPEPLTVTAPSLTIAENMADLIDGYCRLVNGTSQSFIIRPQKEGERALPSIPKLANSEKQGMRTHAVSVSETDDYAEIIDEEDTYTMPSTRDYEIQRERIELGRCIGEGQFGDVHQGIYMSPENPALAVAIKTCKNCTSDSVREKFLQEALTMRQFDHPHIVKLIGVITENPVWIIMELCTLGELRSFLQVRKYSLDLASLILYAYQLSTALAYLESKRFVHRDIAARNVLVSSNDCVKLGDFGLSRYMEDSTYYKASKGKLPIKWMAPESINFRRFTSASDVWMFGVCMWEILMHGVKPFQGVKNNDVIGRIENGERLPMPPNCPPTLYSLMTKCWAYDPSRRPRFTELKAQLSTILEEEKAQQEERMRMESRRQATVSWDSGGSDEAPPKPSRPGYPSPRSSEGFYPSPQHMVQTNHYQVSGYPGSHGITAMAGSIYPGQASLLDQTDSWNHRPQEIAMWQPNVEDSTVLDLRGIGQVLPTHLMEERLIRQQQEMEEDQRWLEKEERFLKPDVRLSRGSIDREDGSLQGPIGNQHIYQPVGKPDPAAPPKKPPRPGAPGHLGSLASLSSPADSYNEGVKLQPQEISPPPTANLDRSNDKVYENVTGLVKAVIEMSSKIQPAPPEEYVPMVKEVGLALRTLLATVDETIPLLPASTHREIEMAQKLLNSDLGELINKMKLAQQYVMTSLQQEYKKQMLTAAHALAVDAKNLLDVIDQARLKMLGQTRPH

| Structure (SMILES) | reduction in migration (SKOV3-IP1 cells [1]) [%] | decrease in mean tumor weight compared to control ([2]; nude mice, i.p. tumor, FAK-inhibitor 75 mg/kg oral daily, docetaxel 35 ug IP weekly) [%] | levels of FAK phosphorylation at Y397 (pFAK^Y397) ([3]; HeyA8 cells, 10 μM) | levels of FAK phosphorylation at Y397 (pFAK^Y397) ([3]; SKOV3-IP1 cells, 1 μM concentration) | reduction in invasion (SKOV3-IP1 cells [4]) [%] | decrease of MVD ([2]; p<0.01) [%] |
| --- | --- | --- | --- | --- | --- | --- |
| CONC(=O)c1ccccc1Nc1cc(Nc2cc(C)nn2C(C)C)ncc1Cl [FAK-inhibitor, 2-[(5-chloro-2-[[3-methyl-1-(1-methylethyl)-1H-pyrazol-5-yl]amino]-4-pyridinyl)amino]-N-methoxybenzamide] | 54 | 58 | reduced levels | reduced levels | 12.5 |  |
| Cc1ccc(Nc2nccc(N(C)c3ccc4c(C)n(C)nc4c3)n2)cc1S(N)(=O)=O [pazopanib, 5-[[4-[(2,3-dimethyl-2H-indazol-6-yl)methylamino]-2-pyrimidinyl]amino]-2-methylbenzenesulfonamide, reference compound] |  |  |  |  |  | 49 |
